For 1 compound, GI50, Activity and EC50 results are on record in ChEMBL document CHEMBL2311520, “Total synthesis of AMF-26, an antitumor agent for inhibition of the Golgi system, targeting ADP-ribosylation factor 1” (J Med Chem, 2013).

Test [1] can be described thus: Growth inhibition of human HBC4 cells after 48 hrs by Sulforhodamine B assay. It is filed as functional. As to conditions: Homo sapiens, HBC4, 48 h; read-out: GI50. Background: Sulforhodamine B stains cellular protein and so reports cell mass.
Test [2] relates to HBC4. In words: Induction of golgi disassembly in human HBC4 cells assessed as presence of GBF1 in cytoplasm at 0.1 to 1 uM after 1 hr by immunofluorescence microscopy. It is filed as functional, cell-based.
The nature of test [3]: Induction of golgi disassembly in human BSY1 cells assessed as presence of GBF1 in cytoplasm after 1 hr by immunofluorescence microscopy. It is filed as functional, cell-based. As to conditions: bsy-1.
Test [4] is described as follows: Growth inhibition of human BSY1 cells after 48 hrs by Sulforhodamine B assay. The format is functional. As to conditions: BSY-1, 48 h, read-out: GI50.
Test [5] in a line: Induction of golgi disassembly in human HBC4 cells assessed as presence of GBF1 in cytoplasm after 1 hr by immunofluorescence microscopy. The format is functional, cell-based.
The test system of test [6] is BSY-1. As to the kind of experiment: Induction of golgi disassembly in human BSY1 cells assessed as presence of GBF1 in cytoplasm at 0.1 to 1 uM after 1 hr by immunofluorescence microscopy. The format is functional, cell-based.

pEC50: −log10 of the molar value. Activity calls are given as the source filed them. The calls are words filed in the database; no cut-off is given here.

For the compound `CC/C(=C\C=C\[C@@H]1[C@H]2[C@H](C)[C@@H](O)[C@H](C)C[C@@H]2C=C[C@@H]1C)C(=O)NCc1cccnc1`, the GI50 (commonly the concentration giving 50% growth inhibition) in test [1] came to 550 nM; in test [4] it was 190 nM. Besides, the outcome in test [2] and in test [6] was Active. Besides, the pEC50 (usually the negative decadic logarithm of the EC50, by convention in mol/L) was 6.07 in test [3] and 6.47 in test [5].
